Test results published in patent publication US20260374754A1, “N-((ISOQUINOLIN-6-YL)METHYL)-1H-PYRAZOLE-4-CARBOXAMIDE DERIVATIVES AS PLASMA KALLIKREIN INHIBITORS FOR THE TREATMENT OF HEREDITARY ANGIODEMA” (Takeda Pharmaceutical Company Limited, priority 2022, published 2026).
pEC50: −log10 of the molar value. Where a name gives a salt, the structure may show the parent alone.

Target: human activated kallikrein enzyme (Homo sapiens, UniProt P03952)
Assay: Inhibition of human activated plasma kallikrein, fluorogenic PFR-AMC substrate, 500 pM enzyme format
Type: biochemical
Settings: 500 pM activated kallikrein; 300 μM PFR-AMC; 30 min preincubation; 10 min room temperature; pH 7.5; read-out: Primary Dose Response Assay: Average EC50
Outline: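 500 pM activated kallikrein preincubated 30 min at room temperature with inhibitors in pH 7.5 Tris/EDTA/NaCl buffer with PEG-400 and Triton X-100. Reaction started with 300 μM PFR-AMC, run 10 min at room temperature; AMC fluorescence read at ex 380/em 460 nm.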

Sequence of human activated kallikrein enzyme (P03952 391-638 limits assumed): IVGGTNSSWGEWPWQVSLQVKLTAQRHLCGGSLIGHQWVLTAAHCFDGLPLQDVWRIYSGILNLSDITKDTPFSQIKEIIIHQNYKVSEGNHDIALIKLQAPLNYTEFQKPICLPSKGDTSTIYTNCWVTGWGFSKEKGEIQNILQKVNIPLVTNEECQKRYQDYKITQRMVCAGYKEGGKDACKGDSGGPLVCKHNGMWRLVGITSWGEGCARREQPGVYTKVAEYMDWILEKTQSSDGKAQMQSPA
Sequence of human activated kallikrein enzyme (P03952 20-390 partner limits assumed): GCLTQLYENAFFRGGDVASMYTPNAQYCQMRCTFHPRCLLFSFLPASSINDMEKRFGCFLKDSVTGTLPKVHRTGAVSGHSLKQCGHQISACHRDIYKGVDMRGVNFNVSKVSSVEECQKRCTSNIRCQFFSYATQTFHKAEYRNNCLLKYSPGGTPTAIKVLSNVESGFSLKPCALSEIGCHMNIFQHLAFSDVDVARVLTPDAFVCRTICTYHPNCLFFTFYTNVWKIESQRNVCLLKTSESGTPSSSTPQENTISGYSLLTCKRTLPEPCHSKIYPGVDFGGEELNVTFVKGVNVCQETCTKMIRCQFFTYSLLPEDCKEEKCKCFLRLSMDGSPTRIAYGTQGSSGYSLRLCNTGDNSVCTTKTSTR

Row | Structure (SMILES) | pEC50
1 | Cc1cc2c(N)nccc2c(C)c1CNC(=O)c1cc(CN)n(Cc2ccccc2)n1 [Example 203, N-((1-amino-5,7-dimethylisoquinolin-6-y1)methyl)-5-(aminomethyl)-1-benzyl-1H-pyrazole-3-carboxamide] | < 6.00
2 | Cc1cc2c(N)nccc2c(C)c1CNc1cc(NCc2cc3c(Cl)cccc3cn2)ncn1 [Example 328, N^4-((1-amino-5,7-dimethylisoquinolin-6-yl)methyl)-N^6-((5-chloroisoquinolin-3-yl)methyl)pyrimidine-4,6-diamine, formic acid salt] | 8.00 to 9.00
3 | Cc1cc2c(N)nccc2c(C)c1CNc1cc(NCc2ccc(Cn3cccn3)c(C(F)(F)F)c2)ncn1 [Example 383, N^4-(4-((1H-pyrazol-1-yl)methyl)-3-(trifluoromethyl)benzyl)-N^6-((1-amino-5,7-dimethylisoquinolin-6-yl)methyl)pyrimidine-4,5-diamine] | > 9.00
4 | Cc1c(CNC(=O)c2cnn(Cc3cn4cc(C5CC5)ccc4n3)c2)c(C)c2ccnc(N)c2c1C [Example 191, N-((1-amino-5,7,8-trimethylisoquinolin-6-yl)methyl)-1-((6-cyclopropylimidazo[1,2-a]pyridin-2-yl)methy1)-1H-pyrazole-4-carboxamide] | 7.00 to 8.00
5 | Cc1cc2c(N)nccc2c(C)c1CNC(=O)c1cnn(Cc2cn3c(C#N)cccc3n2)c1 [Example 143, N-((1-amino-5,7-dimethylisoquinolin-6-yl)methyl)-1-((5-cyanoimidazo[1,2-a]pyridin-2-yl)methyl)-1H-pyrazole-4-carboxamide] | > 9.00
6 | Cc1cc2c(N)nccc2c(C)c1CNC(=O)c1cnn(Cc2ccc3ccc(Cl)cc3n2)c1 [Example 107, N-((1-amino-5,7-dimethylisoquinolin-6-yl)methyl)-1-((7-chloroquinolin-2-yl)methyl)-1H-pyrazole-4-carboxamide] | 8.00 to 9.00
7 | CCOC(=O)CCc1cc(C2CC2)cc2cc(COc3cc(NCc4c(C)cc5c(N)nccc5c4C)ncn3)nn12 [Example 270, ethyl 3-(2-(((6-(((1-amino-5,7-dimethylisoquinolin-6-yl)methyl)amino)pyrimidin-4-yl)oxy)methyl)-5-cyclopropylpyrazolo[1,5-a]pyridin-7-yl)propanoate] | 8.00 to 9.00
8 | Cc1cc2c(N)nccc2c(C)c1CNc1cc(OCc2ccc(Cc3cccn(C)c3=O)cc2)ncn1 [Example 299, 3-(4-(((6-(((1-amino-5,7-dimethylisoquinolin-6-yl)methyl)amino)pyrimidin-4-yl)oxy)methyl)benzyl)-1-methylpyridin-2(1H)-one] | 8.00 to 9.00
9 | Cc1cc2c(N)nccc2c(C)c1CNc1cc2c(ccn2Cc2ccc3ncccc3c2)cn1 [Example 517, 5,7-dimethyl-6-(((1-(quinolin-6-ylmethyl)-1H-pyrrolo[3,2-c]pyridin-6-yl)amino)methyl)isoquinolin-1-amine] | 6.00 to 7.00
10 | COCc1c(C(=O)NCc2c(C)cc3c(N)nccc3c2C)cnn1Cc1cnc(N2CCCC2)nc1 [Example 161, N-((1-amino-5,7-dimethylisoquinolin-6-yl)methyl)-5-(methoxymethyl)-1-((2-(pyrrolidin-1-yl)pyrimidin-5-yl)methyl)-1H-pyrazole-4-carboxamide] | 7.00 to 8.00
11 | Cc1cc2c(N)nccc2c(C)c1CNC(=O)c1cnn(Cc2ccc(CC(=O)N3C[C@@H]4[C@H](CO)[C@@H]4C3)cc2)c1 [Example 209, N-((1-amino-5,7-dimethylisoquinolin-6-y1)methyl)-1-(4-(2-((1R,5S,6s)-6-(hydroxymethyl)-3-azabicyclo[3.1.0]hexan-3-y1)-2-oxoethyl)benzyl)-1H-pyrazole-4-carboxamide] | > 9.00
12 | Cc1cc2c(N)nccc2c(C)c1CNc1cc(N2C[C@@H](O[Si](C)(C)C(C)(C)C)C[C@@H]2c2cn3cc(C4CC4)ccc3n2)ncn1 [Example 512, 6-(((6-((2R,4S)-4-((tert-butyldimethylsilyl)oxy)-2-(6-cyclopropylimidazo[1,2-a]pyridin-2-yl)pyrrolidin-1-yl)pyrimidin-4-yl)amino)methyl)-5,7-dimethylisoquinolin-1-amine] | 8.00 to 9.00
13 | Cc1cc2c(N)nccc2c(C)c1CNC(=O)c1cn(Cc2ccc(CC(=O)N3CC4CC4C3)cc2)nc1C(F)(F)F (centres unmarked) [Example 182, 1-(4-(2-(3-azabicyclo[3.1.0]hexan-3-y1)-2-oxoethyl)benzyl)-N-((1-amino-5,7-dimethylisoquinolin-6-yl)methyl)-3-(trifluoromethyl)-1H-pyrazole-4-carboxamide] | > 9.00
14 | Cc1cc2c(N)nccc2c(C)c1CNC(=O)c1cnn(CC(=O)N(C)c2ccccc2)c1 [Compound 155] | < 6.00
15 | Cc1cc(Cn2cc(C(=O)NCc3c(C)cc4c(N)nccc4c3C)cn2)ccc1C1CC1 [Example 2, N-((1-amino-5,7-dimethylisoquinolin-6-yl)methyl)-1-(4-cyclopropyl-3-methylbenzyl)-1H-pyrazole-4-carboxamide] | 8.00 to 9.00
16 | Cc1cc2c(N)nccc2c(C)c1CNc1cc(C(F)(F)c2cn3cc(C4CC4)ccc3n2)ncn1 [Example 404, 6-(((6-((6-cyclopropylimidazo[1,2-a]pyridin-2-yl)difluoromethyl)pyrimidin-4-yl)amino)methyl)-5,7-dimethylisoquinolin-1-amine] | 7.00 to 8.00
17 | Cc1cc2c(N)nccc2c(C)c1CNC(=O)c1cc(CN)nn1Cc1ccccc1 [Example 202, N-((1-amino-5,7-dimethylisoquinolin-6-yl)methyl)-3-(aminomethyl)-1-benzyl-1H-pyrazole-5-carboxamide] | < 6.00
18 | Cc1cc2c(N)nccc2c(C)c1CNc1cc(OCc2ccc(Cn3cccn3)nc2)ncn1 [Example 300, 6-(((6-((6-((1H-pyrazol-1-yl)methyl)pyridin-3-yl)methoxy)pyrimidin-4-yl)amino)methyl)-5,7-dimethylisoquinolin-1-amine] | 6.00 to 7.00
19 | Cc1cnc2ccc(C(C)Oc3cnnc(NCc4c(C)cc5c(N)nccc5c4C)c3)cc2c1 (centres unmarked) [Example 419, 5,7-dimethyl-6-(((5-(1-(3-methylquinolin-6-yl)ethoxy)pyridazin-3-yl)amino)methyl)isoquinolin-1-amine] | > 9.00
20 | Cc1cc2c(N)nccc2c(C)c1CNc1cc(NCc2cn3cc(C(F)(F)F)ccc3n2)ncn1 [Example 329, N^4-((1-amino-5,7-dimethylisoquinolin-6-yl)methyl)-N^6-((6-(trifluoromethyl)imidazo[1,2-a]pyridin-2-yl)methyl)pyrimidine-4,6-diamine] | > 9.00
21 | Cc1cc2ccnc(NC(=O)OCc3ccccc3)c2c(C)c1CNc1cc(NCc2ccc(Cn3ccccc3=O)cc2)ncn1 [Example 248, benzyl (6,8-dimethyl-7-(((6-((4-((2-oxopyridin-1(2H)-yl)methyl)benzyl)amino)pyrimidin-4-yl)amino)methyl)isoquinolin-1-yl)carbamate] | 8.00 to 9.00
22 | Cc1cc2c(N)nccc2c(C)c1CNc1cc(NCc2ccc(Oc3ccccn3)cc2)ncn1 [Example 361, N^4-((1-amino-5,7-dimethylisoquinolin-6-yl)methyl)-N^6-(4-(pyridin-2-yloxy)benzyl)pyrimidine-4,6-diamine] | 8.00 to 9.00
23 | Cc1cc2c(N)nccc2c(C)c1CNc1cc(OCc2cc3cc(C4CC4)ccc3s2)ncn1 [Example 395, 6-(((6-((5-cyclopropylbenzo[b]thiophen-2-yl)methoxy)pyrimidin-4-yl)amino)methyl)-5,7-dimethylisoquinolin-1-amine] | 7.00 to 8.00
